# Assay results from PubChem BioAssay AID1996.
# Conditions: buffer; pH 7.4; 200.0 µM
row,SMILES,solubility kinetic
1,[Cl-].c1ccc(Cn2c[n+](Cc3ccccc3)cn2)cc1,> 42.9 µg/mL
2,COc1cc(C(NC(C)=O)NC(C)=O)ccc1OCc1ccccc1,> 51.4 µg/mL
3,CCNC(=S)Nc1cccc(NC(=O)c2ccccc2O)c1,42 µg/mL
4,Cc1ccc(N2CCN(C(=O)NC3CCCCC3)CC2)c(C)c1,1.6 µg/mL
5,COC(OC)C(C)NC(=O)NC(=O)c1ccccc1Cl (stereo not given),39.2 µg/mL
6,Cc1ccc(S(C)(=O)=NC(=O)NC(=O)c2c(F)cccc2Cl)cc1 (stereo not given),41.1 µg/mL
7,Cc1ccc(Sc2ncccc2N)cc1,32.2 µg/mL
8,COC(=O)c1sc(NC(=O)c2c(-c3ccccc3)noc2C)nc1C,0.8 µg/mL
9,CCOC(=O)C1CCN(S(=O)(=O)c2cn(C)c(C)n2)CC1,> 47.3 µg/mL
10,COc1cc2ncnc(N[C@H](C)c3ccccc3)c2cc1OC,> 46.4 µg/mL
11,OC(CN1CCN(c2ccccc2Cl)CC1)c1ccccc1 (stereo not given),41.4 µg/mL
12,COc1ccc(CCN(C)C(=O)c2ccc3c(=O)n4c(nc3c2)CCCCC4)cc1OC,> 65.3 µg/mL
13,Cc1ccc(NC(=O)CCC(=O)N2CCC(C)CC2)c([N+](=O)[O-])c1,> 50 µg/mL
14,O=[N+]([O-])c1ccc2c(c1)ncn2CCc1ccccc1,8 µg/mL
15,Cc1ccc(CN2C(=O)c3ccccc3NC2c2ccccn2)cc1 (stereo not given),> 49.4 µg/mL
16,Cc1ccc(NC(=O)CSc2nncs2)cc1Cl,> 45 µg/mL
17,O=C(NCc1ccccc1Cl)c1ccc2ccccc2n1,6.2 µg/mL
18,O=C(NCCCCc1ccccc1)c1ccc(Br)cc1,< 0.7 µg/mL
19,CC(CN1CCOCC1)OC(=O)c1ccccc1Cl.Cl (stereo not given),> 48 µg/mL
20,C=CCOC(=O)C1=C(C)NC(=O)NC1c1ccc(N(C)C)cc1 (stereo not given),5.8 µg/mL
21,CC(NC(=O)COc1ccccc1)C(=O)NCc1ccc(S(N)(=O)=O)cc1 (stereo not given),> 58.7 µg/mL
22,CC(C)(C)NC(=O)CN(C(=O)C(=O)Nc1ccc2c(c1)OCCO2)C1CC1,> 56.3 µg/mL

row,SMILES,solubility kinetic
1,CCCc1cc(=O)[nH]c(SCC(=O)N2CCCCCC2)n1,> 46.4 µg/mL
2,CCOC(=O)CC1C(=O)NCCN1C(=O)c1ccc(Cl)cc1 (stereo not given),> 48.7 µg/mL
3,Cc1cccc(OC(C)C(=O)N2CCCN(C)CC2)c1C (stereo not given),> 43.6 µg/mL
4,CC1C(=O)C(C)C(c2ccc(Cl)cc2)NC1c1ccc(Cl)cc1.Cl (stereo not given),< 0.8 µg/mL
5,COc1ccc(NC(=O)c2csc(C)c2)cc1OC,> 41.6 µg/mL
6,Cc1onc(-c2ccccc2)c1C(=O)N1CCCC1,> 38.4 µg/mL
7,Cc1nnc(SC(C)C(=O)Nc2ccc(Cl)cc2Cl)[nH]c1=O (stereo not given),> 53.9 µg/mL
8,Cc1ccc(NC(=O)CNC2CCCCC2)cc1Cl,21.1 µg/mL
9,Cn1c(C(O)c2ccc(Br)cc2)nc(Cl)c1Cl (stereo not given),13.9 µg/mL
10,CC1CCN(c2ccc([N+](=O)[O-])c(SCCO)c2)CC1,28.4 µg/mL
11,Cc1nc(-c2ccc(S(=O)(=O)N3CCOCC3)cc2)cs1,20.7 µg/mL
12,COc1ccccc1NC(=O)c1cc2c(cc1Cl)N1CCCCCC1=NS2(=O)=O,2.1 µg/mL
13,CCC(C)N1C(=O)CN(C2CCCCCC2)C(=O)C1c1ccccc1F (stereo not given),19.6 µg/mL
14,COc1cccc(C(=O)Nc2ccc(Oc3cccc(C(F)(F)F)c3)nc2)c1,< 0.4 µg/mL
15,Cc1ccc2c(c1)N(C(C)C(=O)NCc1ccccn1)C(=O)CO2 (stereo not given),> 48.8 µg/mL
16,NC(=O)[C@@H]1CCCN1Cc1nc(-c2ccccc2)no1,31.9 µg/mL
17,Oc1ccc(NCc2cccc(OCc3ccccc3)c2)cc1,38.1 µg/mL
18,Cc1ccc(/C=C(\C#N)C(=O)NCc2ccco2)o1,9 µg/mL
19,O=C(CSc1nc2c(c(=O)[nH]1)CCC2)Nc1cccc(F)c1,12.2 µg/mL
20,CCOc1ccc(S(=O)(=O)Nc2cnc3ccccc3c2)cc1,> 49.3 µg/mL
21,Cc1cc(C)cc(-n2c(C)nc3cc(C(=O)O)ccc32)c1,35 µg/mL
22,O=C(Nc1cccc(Cl)c1)OCCOc1ccccc1,< 0.6 µg/mL

row,SMILES,solubility kinetic
1,NC(=O)CN1C(=O)C(=O)N(Cc2ccc(Cl)cc2)C1=O,> 44.4 µg/mL
2,CCN1C(=O)/C(=C\c2cccc(OC(=O)c3ccco3)c2)SC1=S,< 0.8 µg/mL
3,CCCC(=O)Nc1ccc2c(c1)nc(CCNC(=O)c1ccco1)n2C,> 53.2 µg/mL
4,Cc1cccc2cc(CNC3CCCC3)c(Cl)nc12,> 41.2 µg/mL
5,O=C(Nc1ccc(NC(=O)C2CC2)nc1)c1ccccc1F,8.1 µg/mL
6,COC(=O)c1ccc(CNC(=O)c2ccc(S(=O)(=O)N3CCCCCC3)cc2)cc1,3.6 µg/mL
7,Cc1cc(C(=O)Nc2ccc(Cl)cc2)c(C)n1Cc1cccs1,2.7 µg/mL
8,CC(C)(C)c1ccc(C2=NC(=O)C(CC(=O)O)S2)cc1 (stereo not given),37.4 µg/mL
9,O=C1NC(=S)S/C1=C\c1ccc2ccccc2c1,1.1 µg/mL
10,Cc1nc(SCc2ccccc2)c2ccsc2n1,< 0.3 µg/mL
11,NCCSc1c(-c2ccc(Cl)cc2)[nH]c2ccccc12,> 45.4 µg/mL
12,CSCCC1NC(=O)N(CC(=O)Nc2cccc(S(=O)(=O)N3CCCCCC3)c2)C1=O (stereo not given),52.3 µg/mL
13,NS(=O)(=O)c1cccc(NC(=O)Nc2ccccc2)c1,> 43.7 µg/mL
14,CC(=O)OC(C(=O)NC1CCCCC1)c1ccccc1F (stereo not given),> 44 µg/mL
15,O=C(Cc1ccc(Br)cc1)NC1CCCc2ccccc21 (stereo not given),1.5 µg/mL
16,O=c1[nH]c(CSc2cccc[n+]2[O-])nc2ccccc12,> 42.8 µg/mL
17,FC(F)Oc1ccc(NC(=S)NCc2ccco2)cc1Cl,> 49.9 µg/mL
18,CCC(CC)N1CCN(C(=O)c2cc(OC)c(OC)c(OC)c2)CC1,> 52.6 µg/mL
19,Cl.c1ccc(Cc2ccc(OCCn3ccnc3)cc2)cc1,41.3 µg/mL
20,O=[N+]([O-])/C(C(=C(Cl)Cl)N1CCOCC1)=C1\NCCO1,> 46.5 µg/mL
21,Cc1ccc(OC(=O)CCC(=O)Nc2ccc(C)c(C)c2)cc1,43.2 µg/mL
22,Cc1ccc(Nc2nc(-c3cccnc3)cs2)cc1C,0.4 µg/mL

row,SMILES,solubility kinetic
1,COc1ccc(Cl)cc1S(=O)(=O)n1c([N+](=O)[O-])cnc1C,31.1 µg/mL
2,O=C(Cc1ccc(Cl)cc1)Nc1ccc2oc(=O)ccc2c1,2.9 µg/mL
3,CC(C)C(=O)Nc1nnc(SCC(=O)NCC2CCCO2)s1 (stereo not given),> 51.7 µg/mL
4,Cc1cc(C(=O)NC2CCCCC2)on1,> 31.2 µg/mL
5,CCOc1ccc(NC(=O)CSc2nc(=O)n(Cc3cccnc3)c3c2CCC3)cc1,4.8 µg/mL
6,CC(C)c1ccc(NC2CCCN(C(=O)c3cccnc3)C2)cc1 (stereo not given),> 48.5 µg/mL
7,CN1CCc2c(OCc3ccc(F)cc3)cccc2C1=O,36.8 µg/mL
8,O=S(=O)(Nc1ccc(F)cc1)c1ccc(S(=O)(=O)N2CCOCC2)cc1,12.6 µg/mL
9,CCCN(C(=O)CCl)C1=CCCCC1,31 µg/mL
10,CC(C)(C)c1ccc(C(=O)NC2CCN(Cc3ccccc3)CC2)cc1,36.5 µg/mL
11,Cc1cccc(NC(=O)N2CCCCCC2)c1C,> 37 µg/mL
12,CC(=O)Nc1ccc(NC(=O)c2sc(-c3ccccc3)nc2C)cc1,0.9 µg/mL
13,Cc1cccc(N2C(=O)NC(=O)/C(=C\C=C\c3ccco3)C2=O)c1,39.2 µg/mL
14,CC(C)(C)C(=O)NC(=O)Nc1ccccc1C(F)(F)F,3.3 µg/mL
15,COc1ccc(C)cc1NC(=S)N1CC(C)OC(C)C1 (stereo not given),> 44.2 µg/mL
16,CC(C)(C)NC(=O)c1ccc2c(c1)C(=O)N(Cc1ccco1)C2=O,46 µg/mL
17,Cc1ccc(C(OC(=O)c2ccco2)C(=O)NC(C)(C)C)cc1 (stereo not given),17 µg/mL
18,NC(=NC(=O)c1ccc(OC(F)(F)F)cc1)c1ccc(C(F)(F)F)cn1,< 0.3 µg/mL
19,CCOC(=O)/C(C#N)=C/N1CCOCC1,> 31.5 µg/mL
